According to patent US20050256174A1, “Raf kinase inhibitors” (priority 1998, published 2005):

Row | melting point [°C] | Compound
1 | 109 to 111 | COC(=O)c1cc(C(C)(C)C)sc1NC(=O)Nc1ccc(C)cc1 [Example 26, 5-tert-Butyl-2-(3-p-tolyl-ureido)-thiophene-3-carboxylic acid methyl ester]
2 | 80 to 82 | COC(=O)c1cc(C(C)(C)C)sc1NC(=O)Nc1ccccc1 [Example 27, 5-tert-Butyl-2-(3-phenyl-ureido)-thiophene-3-carboxylic acid methyl ester]
3 | 49 to 51 | COC(=O)c1cc(C(C)C)sc1NC(=O)Nc1ccc(C)cc1 [Example 29, 5-Isopropyl-2-(3-p-tolyl-ureido)-thiophene-3-carboxylic acid methyl ester]

The remaining lines, values behind:

Row | Compound | melting point [°C]
4 | COC(=O)c1sc(C(C)C)cc1NC(=O)Nc1ccc(C)cc1 [Example 1, 5-Isopropyl-3-(3-p-tolyl-ureido)-thiophene-2-carboxylic acid methyl ester] | 93 to 95
5 | CCc1nnc(NC(=O)Nc2sc(C(C)(C)C)cc2C(=O)OC)s1 [Example 28, 5-tert-Butyl-2-(3-(5-ethyl-[1,3,4]thiadiazol-2-yl)-ureido)-thiophene-3-carboxylic acid methyl ester] | 206 to 208
6 | COC(=O)c1cc(C(C)C)sc1NC(=O)Nc1ccc(C)s1 [Example 30, 5-Isopropyl-2-[3-(5-methyl-thiophen-2-yl)-ureido]-thiophene-3-carboxylic acid methyl ester] | 70 to 73
